# According to ChEMBL document CHEMBL1145558, “3,5-Dihydro-imidazo[4,5-d]pyridazin-4-ones: a class of potent DPP-4 inhibitors” (Bioorg Med Chem Lett, 2008):
# Key:
# Rattus norvegicus [1] = organism: Rattus norvegicus; assay: animal or person; details: Plasma, po, 7 h, read-out: Inhibition
# Description: Ex vivo inhibition of DPP4 in rat plasma at 10 mg/kg, po after 7 hrs
# [2] = target: T1, Muscarinic acetylcholine receptor M1 (Homo sapiens, UniProt P11229); assay: Displacement of [N-methyl-3H]scopolamine from human recombinant muscarinic receptor M1 expressed in CHO cell membrane; type: cell membranes
# T1 sequence (P11229 whole entry): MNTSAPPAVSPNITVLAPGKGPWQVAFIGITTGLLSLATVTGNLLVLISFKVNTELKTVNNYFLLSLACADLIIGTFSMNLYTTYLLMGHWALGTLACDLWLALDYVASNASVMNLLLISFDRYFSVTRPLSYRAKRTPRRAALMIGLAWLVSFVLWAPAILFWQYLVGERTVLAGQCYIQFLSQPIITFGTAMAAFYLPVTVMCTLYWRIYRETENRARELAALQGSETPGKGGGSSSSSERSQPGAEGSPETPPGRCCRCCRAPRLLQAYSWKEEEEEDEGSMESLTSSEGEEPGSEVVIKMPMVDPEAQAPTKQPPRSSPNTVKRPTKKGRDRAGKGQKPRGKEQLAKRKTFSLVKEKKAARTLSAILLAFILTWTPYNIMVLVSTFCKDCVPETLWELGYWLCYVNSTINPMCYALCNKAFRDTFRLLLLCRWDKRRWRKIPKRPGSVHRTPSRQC
# [3] = Oral bioavailability in rat; type: ADME, organism-based; details: in vivo
# [4] = Volume of distribution at steady state in rat; type: ADME, organism-based; details: in vivo, read-out: Vdss
# Rattus norvegicus [5] = assay: Ex vivo inhibition of DPP4 in rat plasma at 10 mg/kg, po after 24 hrs; type: functional; parameters: scale not given: the % may be the effect or the level left
# Cytochrome P450 2C9 = Cytochrome P450 2C9 (Homo sapiens, UniProt P11712); assay: Inhibition of CYP2C9; type: ADME
# Cytochrome P450 3A4 = Cytochrome P450 3A4 (Homo sapiens, UniProt P08684); assay: Inhibition of CYP3A4; type: ADME
# [6] = Metabolic stability in human liver cytosol assessed as half life; type: ADME, tissue-based
# Cytochrome P450 1A2 = target: T2, Cytochrome P450 1A2 (Homo sapiens, UniProt P05177); assay: Inhibition of CYP1A2; type: ADME
# T2 sequence (P05177 whole entry): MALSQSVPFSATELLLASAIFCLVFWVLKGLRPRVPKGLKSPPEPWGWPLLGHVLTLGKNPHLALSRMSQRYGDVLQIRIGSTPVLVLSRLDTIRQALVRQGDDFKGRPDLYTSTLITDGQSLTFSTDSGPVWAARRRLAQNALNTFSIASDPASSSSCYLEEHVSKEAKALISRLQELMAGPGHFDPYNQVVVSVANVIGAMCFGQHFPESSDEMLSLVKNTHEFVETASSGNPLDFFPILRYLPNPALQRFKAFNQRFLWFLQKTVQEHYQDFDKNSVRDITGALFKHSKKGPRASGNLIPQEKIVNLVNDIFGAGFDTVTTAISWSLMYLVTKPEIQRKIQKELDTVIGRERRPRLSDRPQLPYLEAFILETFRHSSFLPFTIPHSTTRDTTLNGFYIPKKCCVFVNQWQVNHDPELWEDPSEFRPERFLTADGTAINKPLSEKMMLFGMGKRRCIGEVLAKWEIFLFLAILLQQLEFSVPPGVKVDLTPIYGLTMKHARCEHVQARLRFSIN
# Cytochrome P450 2C19 = Cytochrome P450 2C19 (Homo sapiens, UniProt P33261); assay: Inhibition of CYP2C19; type: ADME
# [7] = Clearance in rat; type: ADME, organism-based; details: in vivo
# [8] = Mean residence time in rat; type: ADME, organism-based; details: in vivo
# hERG (KCNH2) = hERG (KCNH2) (Homo sapiens, UniProt Q12809); assay: Inhibition of human ERG assessed as channel current activity at 1 uM; parameters: scale not given: the % may be the effect or the level left; details: read-out: Activity
# [9] = Metabolic stability in human liver microsomes assessed as half life; type: ADME, Microsome
# Cytochrome P450 2D6 = Cytochrome P450 2D6 (Homo sapiens, UniProt P10635); assay: Inhibition of CYP2D6; type: ADME
# Chain of Cytochrome P450 2D6 (P10635 whole entry): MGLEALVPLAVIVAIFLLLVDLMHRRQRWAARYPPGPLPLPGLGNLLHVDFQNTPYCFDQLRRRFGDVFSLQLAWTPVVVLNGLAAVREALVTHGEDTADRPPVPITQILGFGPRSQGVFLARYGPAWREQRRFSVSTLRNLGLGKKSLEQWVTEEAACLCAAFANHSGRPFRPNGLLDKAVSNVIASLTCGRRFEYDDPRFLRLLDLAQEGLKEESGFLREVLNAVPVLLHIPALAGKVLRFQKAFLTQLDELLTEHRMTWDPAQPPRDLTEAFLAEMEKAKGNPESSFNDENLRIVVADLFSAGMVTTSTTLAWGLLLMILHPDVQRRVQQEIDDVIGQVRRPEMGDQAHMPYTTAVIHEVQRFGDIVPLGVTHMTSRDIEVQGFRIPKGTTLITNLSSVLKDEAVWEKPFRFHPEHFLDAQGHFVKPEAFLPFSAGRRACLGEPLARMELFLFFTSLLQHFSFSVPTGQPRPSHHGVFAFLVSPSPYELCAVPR
# Chain of Cytochrome P450 2C9 (P11712 whole entry): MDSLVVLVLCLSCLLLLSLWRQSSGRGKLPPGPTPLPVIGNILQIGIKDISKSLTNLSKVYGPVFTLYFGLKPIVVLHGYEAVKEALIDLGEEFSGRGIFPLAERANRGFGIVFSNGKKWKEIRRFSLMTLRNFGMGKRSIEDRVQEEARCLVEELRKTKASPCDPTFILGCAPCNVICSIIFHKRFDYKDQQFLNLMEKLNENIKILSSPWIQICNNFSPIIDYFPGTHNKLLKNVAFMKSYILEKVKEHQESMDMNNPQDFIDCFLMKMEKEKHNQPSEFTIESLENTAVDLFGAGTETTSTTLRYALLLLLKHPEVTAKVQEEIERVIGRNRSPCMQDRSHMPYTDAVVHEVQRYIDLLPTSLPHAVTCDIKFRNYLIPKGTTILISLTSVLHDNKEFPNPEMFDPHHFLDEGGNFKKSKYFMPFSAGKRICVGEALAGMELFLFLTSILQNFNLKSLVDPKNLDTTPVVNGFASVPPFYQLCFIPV
# Chain of Cytochrome P450 3A4 (P08684 whole entry): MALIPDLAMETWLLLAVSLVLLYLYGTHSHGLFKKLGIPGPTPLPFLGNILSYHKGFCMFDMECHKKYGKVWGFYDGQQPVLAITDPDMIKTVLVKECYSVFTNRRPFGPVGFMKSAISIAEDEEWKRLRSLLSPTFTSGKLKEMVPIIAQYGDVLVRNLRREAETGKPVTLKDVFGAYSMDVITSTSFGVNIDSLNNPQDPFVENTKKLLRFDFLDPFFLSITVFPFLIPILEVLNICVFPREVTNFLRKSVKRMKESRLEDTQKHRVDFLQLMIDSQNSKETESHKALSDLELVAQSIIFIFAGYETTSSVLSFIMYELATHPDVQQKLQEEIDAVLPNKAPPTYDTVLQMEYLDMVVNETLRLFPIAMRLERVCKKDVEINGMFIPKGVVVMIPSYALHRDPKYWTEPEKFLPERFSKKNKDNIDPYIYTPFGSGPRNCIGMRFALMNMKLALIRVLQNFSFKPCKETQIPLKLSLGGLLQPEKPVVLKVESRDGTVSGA
# Chain of Cytochrome P450 2C19 (P33261 whole entry): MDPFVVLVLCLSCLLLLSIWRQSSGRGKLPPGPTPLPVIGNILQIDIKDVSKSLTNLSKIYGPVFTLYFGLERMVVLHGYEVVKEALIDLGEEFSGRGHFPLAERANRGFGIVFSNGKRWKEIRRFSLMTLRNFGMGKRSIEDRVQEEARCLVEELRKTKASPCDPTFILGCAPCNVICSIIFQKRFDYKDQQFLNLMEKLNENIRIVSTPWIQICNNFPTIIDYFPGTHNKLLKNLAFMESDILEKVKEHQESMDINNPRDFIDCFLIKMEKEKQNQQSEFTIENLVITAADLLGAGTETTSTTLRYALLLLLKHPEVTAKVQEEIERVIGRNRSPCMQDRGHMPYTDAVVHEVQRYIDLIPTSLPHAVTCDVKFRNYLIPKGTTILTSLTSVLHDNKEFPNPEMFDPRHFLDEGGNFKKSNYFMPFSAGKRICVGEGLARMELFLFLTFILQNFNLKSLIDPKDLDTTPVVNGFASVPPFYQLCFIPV
# Chain of hERG (KCNH2) (Q12809 whole entry): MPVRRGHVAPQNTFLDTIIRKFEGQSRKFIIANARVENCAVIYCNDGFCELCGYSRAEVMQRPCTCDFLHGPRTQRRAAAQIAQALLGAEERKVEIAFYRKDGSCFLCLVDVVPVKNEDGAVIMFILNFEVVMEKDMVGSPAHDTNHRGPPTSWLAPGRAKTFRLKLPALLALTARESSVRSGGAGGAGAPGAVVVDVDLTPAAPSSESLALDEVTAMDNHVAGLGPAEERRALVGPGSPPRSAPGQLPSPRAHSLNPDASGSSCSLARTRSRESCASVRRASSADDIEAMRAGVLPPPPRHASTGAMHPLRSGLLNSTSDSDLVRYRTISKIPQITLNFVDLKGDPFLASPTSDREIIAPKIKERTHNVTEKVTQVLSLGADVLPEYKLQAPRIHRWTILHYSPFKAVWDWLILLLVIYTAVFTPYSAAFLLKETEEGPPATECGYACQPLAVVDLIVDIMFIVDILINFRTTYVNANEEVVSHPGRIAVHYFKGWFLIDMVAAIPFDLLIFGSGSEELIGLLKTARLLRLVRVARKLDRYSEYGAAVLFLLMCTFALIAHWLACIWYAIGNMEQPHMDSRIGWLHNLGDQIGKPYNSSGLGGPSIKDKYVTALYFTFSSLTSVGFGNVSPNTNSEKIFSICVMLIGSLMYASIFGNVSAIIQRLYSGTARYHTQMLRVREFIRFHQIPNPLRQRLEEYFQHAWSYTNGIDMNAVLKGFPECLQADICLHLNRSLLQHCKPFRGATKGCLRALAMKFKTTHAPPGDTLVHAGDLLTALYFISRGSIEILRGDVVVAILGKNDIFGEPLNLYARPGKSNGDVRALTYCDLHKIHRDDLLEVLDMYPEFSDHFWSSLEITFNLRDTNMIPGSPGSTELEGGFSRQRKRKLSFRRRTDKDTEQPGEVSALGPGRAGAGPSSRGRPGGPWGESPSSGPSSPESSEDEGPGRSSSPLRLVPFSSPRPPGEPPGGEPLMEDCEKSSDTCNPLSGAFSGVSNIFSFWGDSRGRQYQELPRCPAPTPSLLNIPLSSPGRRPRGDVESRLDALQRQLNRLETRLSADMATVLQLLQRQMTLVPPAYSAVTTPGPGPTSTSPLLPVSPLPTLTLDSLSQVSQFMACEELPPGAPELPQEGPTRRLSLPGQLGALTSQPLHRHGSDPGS
SMILES,IC50 [2] [nM],inhibition in vivo at 10 mg/kg (Rattus norvegicus [1]) [%],also measured
CC#CCn1c(N2CCCC(N)C2)nc2cnn(CC(=O)c3ccccc3)c(=O)c21 (centres undefined),,8,
CC#CCn1c(N2CCC[C@H](N)C2)nc2cnn(CC3=Nc4ccccc4Oc4ccccc43)c(=O)c21,,9,
CC#CCn1c(N2CCCC(N)C2)nc2cnn(Cc3nc4ccccc4o3)c(=O)c21 (centres undefined),,64,
CC#CCn1c(NCCN)nc2cnn(Cc3nc(C)c4ccccc4n3)c(=O)c21,> 5000,29,
CC#CCn1c(N2CCCNCC2)nc2cnn(Cc3nc(C)c4ccccc4n3)c(=O)c21,954,20,
CC#CCn1c(N2CCNCC2)nc2cnn(Cc3nc(C)c4ccccc4n3)c(=O)c21,2800,45,
CC#CCn1c(NC[C@H](C)N)nc2cnn(Cc3nc(C)c4ccccc4n3)c(=O)c21,> 5000,50,

# Second part, led by results:
IC50 [2] [nM],SMILES,inhibition in vivo at 10 mg/kg (Rattus norvegicus [1]) [%],also measured
93,CC#CCn1c(N2CCC[C@@H](N)C2)nc2c(C)nn(Cc3nc(C)c4ccccc4n3)c(=O)c21,76,
5610,CC#CCn1c(N2CCCC(N)C2)nc2cnn(CC3=Nc4ccccc4Oc4ccccc43)c(=O)c21 (centres undefined),73,
> 5000,CC#CCn1c(N2CCC[C@@H](N)C2)nc2cnn(CC3=Nc4ccccc4Oc4ccccc43)c(=O)c21,63,
1190,CC#CCn1c(N2CCC[C@@H](N)C2)nc2cnn(Cc3nc(C)c4ccccc4n3)c(=O)c21,80,bioavailability [3]: 15%; Vd [4]: 40 L/kg; Activity (Rattus norvegicus [5]): 71%; Inhibition (Cytochrome P450 2C9): > 50 µM; Inhibition (Cytochrome P450 3A4): > 50 µM; half-life [6]: > 1.5 h; Inhibition (Cytochrome P450 1A2): > 50 µM; Inhibition (Cytochrome P450 2C19): > 50 µM; clearance [7]: 56 mL/min/kg; MRT [8]: 8.8 h; activity at 1 µM (hERG (KCNH2)): 88%; half-life [9]: > 1.5 h; Inhibition (Cytochrome P450 2D6): > 50 µM
862,CC#CCn1c(N2CCCC(N)C2)nc2cnn(Cc3ccc(C#N)c4ccccc34)c(=O)c21 (centres undefined),84,
